Where two headings read alike, the source gives them in different places. Peptide text beside a SMILES is read from it. * marks the point of attachment. X1 = CC(C)CCCCCCCCCCCCC(=O)*
Assays:
C. albicans MTCC 183 [1] = assay: Time kill assay; format: cell-based, Candida albicans; conditions: for Time to complete killing: C. albicans MTCC 183, 5X MIC, in PBS, CFU count
Method: (§1) Killing kinetics of purified compounds was performed using cells of S. aureus MTCC 1430, V. cholerae MTCC 3904, and C. albicans MTCC 183. Test strains were grown to obtain OD between 0.2 and 0.3 (OD 600 nm), centrifuged, and washed thrice with sterile PBS. Pellets were suspended in PBS and treated with different concentrations of active compounds. Cells after treatment were washed, resuspended, and serially diluted cell suspensions were plated on NA plates. After overnight incubation at 37°C, CFU were recorded ([Singh et al., 2021]).

[2] = system: Spores of A. brassicicola MTCC 2102; assay: Phase-contrast microscopy of treated spores; format: cell-based, Alternaria brassicicola; conditions: A. brassicicola MTCC 2102 spores, 2X MIC, 2 h
Method: Effect of antimicrobial compounds on cell membrane of test organisms was determined by transmission electron microscopy (TEM). Test strains, S. aureus MTCC 1430, V. cholerae MTCC 3904, and C. albicans MTCC 183 were cultured to mid-log phase, washed, and re-suspended in 1X PBS (OD 600 nm 0.2). The cell suspensions were incubated (37°C) with 1X MIC of purified antimicrobial compounds for 30 min. Cells after treatment were centrifuged, washed twice with PBS. For TEM, cells of S. aureus MTCC 1430 and V. cholerae MTCC 3904 were subjected to negative stain with 0.1% (w/v) sodium phosphotungstate (PTA, Sigma, United States) in water for 1 min, on a carbon-coated copper grid with 300 mesh (Polyscience, United States) and observed under transmission electron microscope (JEOL JEM 2100, United States) ([Raje et al., 2006]). For SEM, C. albicans MTCC 183 cells were immobilized on poly L-lysine glazed glass slides and incubated at 4°C for 2 h. Cells were fixed using Karnovsky’s fixative and serially dehydrated with gradient of ethanol, freeze dried, and platinum coated. ZEISS EV040 (United States) scanning electron microscope was employed to photograph the cells ([Raje et al., 2006]). Spores of A. brassicicola MTCC 2102 were treated with 2X MIC of lipopeptides for 2 h and observed under phase-contrast microscope (Nickon H600L, Japan). […]

[3] = system: L. monocytogenes MTCC 839; format: cell-based, Listeria monocytogenes
Method: (§2) The antimicrobial activity of HPLC purified compounds was determined against various test strains including S. aureus MTCC 1430, Vibrio cholera MTCC 3904, Bacillus subtilis MTCC 121, Listeria monocytogenes MTCC 839, C. albicans MTCC 183, C. albicans MTCC 1637, C. albicans MTCC 227, C. tropicalis MTCC 184, C. glabrata MTCC 3019, and C. inconspicua MTCC 1074. Antimicrobial activity was also tested against clinical Candida strains and phytopathogenic fungi viz. Fusarium moniliforme MTCC 158, Alternaria brassicicola MTCC 2102 and Colletotrichum acutatum MTCC 1037. Bacterial and Candida test strains were grown in NB and yeast malt broth (YMB), respectively. Fungal test strains were grown in potato dextrose broth (PDB). Minimum inhibitory concentrations (MICs) of purified compounds were evaluated against test organisms by using a microtiter plate dilution assay. Mid-log-phase test strains (5 × 10^5 CFU/ml) were incubated in a 96-well plate with different concentrations of the lipopeptides for 24–48 h at 37°C (final volume of 200 μl). OD was measured at 600 nm after 24 and 48 h for bacteria and yeast, respectively, using an ELISA microplate reader (Thermo Scientific, United States). MIC against phytopathogenic fungi was determined using the 96-well microtiter plate method ([Sharma et al., 2020]).

S. aureus MTCC 1430 [4] = format: cell-based, Staphylococcus aureus; conditions: MTCC 1430, 24 h
Method: as §2

[5] = Critical micelle concentration by tensiometer; format: physicochemical; conditions: surface tension by tensiometer at room temperature, 0.1 to 1000 μg/ml, mean of triplicate experiments
Method: Collapse Drop Assay (CDA) was performed as mentioned earlier ([Sharma et al., 2020]). To a well of 96 well microtiter plate, 2 μl mineral oil was added and equilibrated at 37°C for 24 h. Purified lipopeptide (5 μl of 10 μg/ml stock) was applied to the top of oil droplet and its shape was observed after 1 min with a magnifying glass for collapse and spread due to reduction in surface tension. Water and triton X-100 served as controls ([Youssef et al., 2004]). To determine critical micelle concentration (CMC), different concentrations of purified lipopeptides were prepared and surface tension was measured on a tensiometer (KRUSS K10T, Germany) at room temperature. The values for CMC were estimated by plotting surface tension as a function of concentration of lipopeptides. A point of intersection was located between the pre and post CMC data plot. The mean value of triplicate experiments was used to increase the accuracy. Concentrations ranging from 0.1 to 1000 μg/ml were used to determine surface tension on a tensiometer.

S. aureus MTCC 1430 [6] = assay: Time kill assay; format: cell-based, Staphylococcus aureus; conditions: in PBS, CFU count
Method: as §1

C. albicans MTCC 1637 = assay: MIC, microtiter plate dilution assay; format: cell-based, Candida albicans; conditions: YMB, 5 × 10^5 CFU/ml, 37°C, OD 600 nm after 48 h
Method: as §2

C. albicans MTCC 227 = assay: MIC, microtiter plate dilution assay; format: cell-based, Candida albicans; conditions: YMB, 5 × 10^5 CFU/ml, 37°C, OD 600 nm after 48 h
Method: as §2

[7] = system: A. brassicicola MTCC 2102; assay: MIC against phytopathogenic fungi, 96-well microtiter plate method; format: cell-based, Alternaria brassicicola; conditions: PDB
Method: as §2

C. albicans MTCC 183 [8] = assay: MIC, microtiter plate dilution assay; format: cell-based, Candida albicans; conditions: YMB, 5 × 10^5 CFU/ml, 37°C, OD 600 nm after 48 h
Method: as §2

F. moniliforme MTCC 158 = assay: MIC against phytopathogenic fungi, 96-well microtiter plate method; format: cell-based, Fusarium moniliforme; conditions: PDB
Method: as §2

C. albicans 400054 = assay: MIC, microtiter plate dilution assay, clinical strain; format: cell-based, Candida albicans; conditions: YMB, 37°C, OD 600 nm after 48 h
Method: Brevibacillus sp. strains GI-9 and SKDU10 were known to produce class IId bacteriocins identified as laterosporulins a ([Singh et al., 2012]; [Baindara et al., 2016]). Both strains were grown on nutrient agar (NA, Himedia, India). All test strains used in this study were obtained from Microbial Type Culture Collection and Gene bank (MTCC), Chandigarh, India. Clinical Candida strains were obtained from the National Culture Collection of Pathogenic Fungi (NCCPF), PGIMER, Chandigarh, India, and all strains were grown on recommended media.
as §2

Molecule	Reduction in growth (C. albicans MTCC 183 [1]; C. albicans MTCC 183, 1X MIC, 4 h) [log]	Time to complete killing (C. albicans MTCC 183 [1]) [h]	Effect on spores (phase-contrast microscopy) [2]	MIC value ([3]; MTCC 839, 24 h) [µg/mL]	MIC value (S. aureus MTCC 1430 [4]) [µg/mL]	CMC (critical micelle concentration) [5] [µg/mL]	Time to complete reduction in population (S. aureus MTCC 1430 [6]; S. aureus MTCC 1430, 1X MIC) [min]	Time to complete reduction in population (S. aureus MTCC 1430 [6]; S. aureus MTCC 1430, 2X MIC) [min]	Complete killing of cells within 4 h (C. albicans MTCC 183 [1]; C. albicans MTCC 183, 1X MIC)	Complete killing of cells within 4 h (C. albicans MTCC 183 [1]; C. albicans MTCC 183, 2X MIC)	MIC value (C. albicans MTCC 1637) [µg/mL]	MIC value (C. albicans MTCC 227) [µg/mL]	MIC value [7] [µg/mL]	MIC value ([3]; L. monocytogenes MTCC 839, NB, 5 × 10^5 CFU/ml, 37°C, OD 600 nm after 24 h, 10–550 μg/ml in 5 μg/ml increments) [µg/mL]	MIC value (C. albicans MTCC 183 [8]) [µg/mL]	MIC value (F. moniliforme MTCC 158) [µg/mL]	MIC value (C. albicans 400054) [µg/mL]
CC(C)CCCCCCCCCCCCC(=O)N[C@H](C(=O)NCC(=O)N[C@@H](C)C(=O)N[C@@H](CO)C(=O)N[C@@H](Cc1c[nH]cn1)C(=O)N[C@@H](CCC(N)=O)C(=O)N[C@@H](CCC(N)=O)C(=O)O)[C@@H](C)O [ILL] (X1-TGASHQQ-OH; N-terminus assumed)	2	4	structural irregularity	200 to 220	150 to 170	90	≤ 60	≤ 30									
Dhb-Tyr-Orn-Ile-Val-Val-Lys-Val-Leu-Asp-Val-Glu [BLL, bogorol like lipopeptide purified from Brevibacillus sp. strain SKDU10; 12 amino acids and C17 hydroxy fatty acid side chain]		≤ 4	structural irregularity			110	≤ 30	≤ 30	not observed	not observed	250 to 260	300 to 310	500 to 520	230 to 240	150 to 170	490 to 510	240 to 260
